Data: PubChem BioAssay AID1996
Values after ≈ are worked out from the molar mass of the structure shown.

Conditions: buffer; pH 7.4; 200.0 µM

Structure (SMILES)	solubility kinetic
Cc1c(C)c(C)c2[nH]c(-c3ccc4c(c3)OCO4)nc2c1C	< 0.3 µg/mL
Cc1ccc2[nH]c(=O)c3cc(C(=O)NCCC(C)C)sc3c2c1	< 0.4 µg/mL
Cc1ccc(NCc2nc3ccccc3n2C)cc1C	22.1 µg/mL (≈ 83.3 µM)
O=C(OCC(=O)N1CCN(c2ccccc2)CC1)c1ccc[n+]([O-])c1	44.5 µg/mL (≈ 130 µM)
COc1ccc(OCCC(=O)N2CCN(C)CC2)cc1.Cl	> 47.2 µg/mL
O=C(CNC(=O)c1ccccc1F)NC1=NCCS1	> 42.2 µg/mL
Fc1ccc(-c2noc(-c3ccc4c(c3)CCO4)n2)cc1	< 0.3 µg/mL
COc1ccc(NC(=O)NC2CCCc3ccccc32)cc1OC (stereo not given)	1.1 µg/mL (≈ 3.37 µM)
O=C1CCC(=O)N1CCSC(=S)N1CCOCC1	> 43.3 µg/mL
O=c1c2ccccc2[nH]c(=S)n1-c1ccc2c(c1)OCCO2	4.5 µg/mL (≈ 14.4 µM)
COc1ccc(-c2nnc(SCC(=O)NC3CC3)o2)cc1	> 45.8 µg/mL
COc1ccc(NC2CCCN(C(=O)c3ccncc3)C2)cc1 (stereo not given)	> 46.7 µg/mL
CCN1CCC(N2CCN(c3ccccc3OC)CC2)CC1	> 45.5 µg/mL
Cc1cc(C(=O)Nc2ccc([N+](=O)[O-])cn2)cs1	6.2 µg/mL (≈ 23.5 µM)
CCOc1ncc(S(=O)(=O)N2CCN(CC)CC2)cc1C(=O)O	> 51.5 µg/mL
CCOC(=O)/C(C#N)=C/c1cccn1-c1ccc(Cl)cc1	< 0.3 µg/mL
O=C(Cc1ccc(-c2ccccc2)cc1)Nc1ccccc1	1.7 µg/mL (≈ 5.92 µM)
Cc1cccc(NC(=O)c2ccc(NCCO)c([N+](=O)[O-])c2)n1	3.4 µg/mL (≈ 10.7 µM)
O=C(NS(=O)(=O)c1ccccc1)c1cccc(Br)c1	> 51 µg/mL
CCOc1ccc(-c2csc3nc[nH]c(=O)c23)cc1	18.9 µg/mL (≈ 69.4 µM)

Structure (SMILES)	solubility kinetic
CCOc1ccc(NC(=O)CSc2ncn[nH]2)cc1	> 41.7 µg/mL
CCCS(=O)(=O)N1CCCC(C(=O)N2CCCCC2)C1 (stereo not given)	43 µg/mL (≈ 142 µM)
Fc1ccc(NC(=S)N2CCN(c3ccccn3)CC2)cc1Cl	< 0.2 µg/mL
COCCn1c(-c2cccs2)nc2nc3ccccc3nc21	39.7 µg/mL (≈ 128 µM)
COc1ccc(-c2cn(-c3ccc(C)cc3C)c(=S)[nH]2)cc1OC	16.8 µg/mL (≈ 49.3 µM)
O=C(O)c1ccccn1	> 18.5 µg/mL
COc1ccc(/C=C/C(=O)OCC(=O)NC2CCCC(C)C2C)cc1 (stereo not given)	6.1 µg/mL (≈ 17.7 µM)
COc1cc(C(=O)NCc2ccc3[nH]c(C)cc3c2)cc(OC)c1OC	12.5 µg/mL (≈ 35.3 µM)
N#C/C(=C\c1ccncc1)c1nc2ccccc2o1	12.9 µg/mL (≈ 52.2 µM)
Cc1cnc(C(=O)OCC(=O)N2C(C)CCCC2C)cn1 (stereo not given)	> 43.7 µg/mL
Cc1cccc(/C(N)=N/OC(=O)CCCc2ccccc2)c1	1.8 µg/mL (≈ 6.07 µM)
C=CCn1c(SCC(C)=O)nc2scc(-c3ccc(C)o3)c2c1=O	1.6 µg/mL (≈ 4.44 µM)
Cc1cccc(NC(=O)Cn2c(=O)oc3ccccc32)c1C	6.6 µg/mL (≈ 22.3 µM)
O=C(COc1ccc(Cl)cc1)NCc1ccccc1	25.6 µg/mL (≈ 92.8 µM)
Cc1cccc(-n2c(SCC(N)=O)nnc2-c2ccco2)c1	> 47.2 µg/mL
CCCOc1ccccc1/C=C1\SC(N)=NC1=O	2.1 µg/mL (≈ 8.01 µM)
CC(=Nc1ccccc1N)c1c(O)n(C)c(=O)n(C)c1=O	3.6 µg/mL (≈ 12.5 µM)
Cc1c(S(=O)(=O)NCc2ccccc2)c(=O)n(C)c(=O)n1C	> 48.5 µg/mL
CCCc1ccc(C(=O)NC(=O)c2ccccc2O)cc1	3.2 µg/mL (≈ 11.3 µM)
CN(CC(=O)Nc1ccc(OC(F)(F)F)cc1)C(=O)Cc1cccs1	9.3 µg/mL (≈ 25 µM)

Structure (SMILES)	solubility kinetic
CC(=O)NC1C(=O)N=C(SCC(=O)Nc2c(C)cccc2C)NC1=O (stereo not given)	> 54.4 µg/mL
Cc1ccccc1C(=O)NCCNC(=O)c1cnccn1	35.7 µg/mL (≈ 126 µM)
COc1ccc2c(C)cc(SCC(=O)NC3CCCCC3)nc2c1	1.3 µg/mL (≈ 3.77 µM)
Nc1ccc(Sc2nc3ccccc3[nH]2)cc1	> 36.2 µg/mL
COc1ccc(NC(=O)CN(c2ccccc2OC)S(=O)(=O)c2cccs2)cc1Cl	2.9 µg/mL (≈ 6.21 µM)
O=[N+]([O-])c1ccc(Cc2cncc(O)c2)cc1	34.1 µg/mL (≈ 148 µM)
O=S(=O)(c1cccc2nsnc12)N1CCNCC1	> 42.7 µg/mL
Cc1ccc(NC(=O)Nc2cccc(F)c2)nc1	1.3 µg/mL (≈ 5.3 µM)
N#Cc1cccc(NC(=O)Cc2ccccc2)c1	> 35.4 µg/mL
O=C(COC(=O)c1cc(=O)[nH]c2ccccc12)c1ccccc1	8.8 µg/mL (≈ 28.6 µM)
COc1ccccc1NC(=S)NC1CC2CCC1C2 (stereo not given)	> 41.5 µg/mL
O=C(Nc1ccc(-c2ccc([N+](=O)[O-])cc2)cc1)c1ccccc1F	< 0.4 µg/mL
COC(=O)c1ccccc1NC(=O)N1CCN(c2ccc(F)cc2)CC1	4.4 µg/mL (≈ 12.3 µM)
O=C(c1ccccc1NS(=O)(=O)c1ccc(F)cc1F)N1CCCCC1	> 57.1 µg/mL
CCN1CCN(c2ccc(S(=O)(=O)N3CCOCC3)cc2NC(=O)c2cccc([N+](=O)[O-])c2)CC1	> 75.5 µg/mL
O=C(COC(=O)C1CC2C=CC1C2)Nc1ccc([N+](=O)[O-])cc1 (stereo not given)	> 47.4 µg/mL
CCc1noc(C)c1C(=O)NCCc1ccccc1	> 38.7 µg/mL
Nc1ccc(C(=O)O)cc1S(=O)(=O)O	> 32.6 µg/mL
O=C(NCc1ccc(F)cc1)C1CC(=O)N(Cc2ccco2)C1 (stereo not given)	> 47.4 µg/mL
Cc1ccc(O)c(NC(=O)C2CCCCC2)c1	33.3 µg/mL (≈ 143 µM)
